Results as given in US4459302A, “Acyl-1H-1,2,4-triazole derivatives” (Gruppo Lepetit, S.p.A., priority 1978, dated 1984).

System: female Syrian golden hamsters
Experiment: antifertility (post-coital post-implantation) activity, subcutaneous, hamsters
Format: in vivo, Syrian golden hamster
Details: for ED50: Mesocricetus auratus, sc, 336 h, s.c. hamster, dosed days 4-8 of pregnancy, autopsy day 14, read-out: ED50 (100% activity, absence of live fetuses, in 50% of the animals)
Excerpt: Fertility regulation can usually be achieved in a number of ways through the administration of hormonal substances. These can involve ovulation inhibition, ova transport, fertilization, implantation of the zygote, resorption of the fetus or abortion. Only with ovulation inhibition has there developed a successful method that is clinically useful. The compounds of this invention allow an entirely new approach to this problem in which a non-hormonal compound can be administered parenterally, orally or by intravaginal route once or more times as needed after a "missed period" or to induce termination of a more advanced pregnancy. Representative experiments for assessing antifertility activity were carried out with female Syrian golden hamsters weighing 100 to 130 g. The animals were mated and the presence of sperm in the vagina was taken as evidence of mating. The day sperm was detected and considered day one of pregnancy, since in our laboratories and those of other investigators 90 to 100% of animals that mate as evidenced by vaginal sperm are pregnant.
Pregnancy was later confirmed at the time of autopsy by presence of fetuses or implantation sites in the uterus. Even if an animal aborts the fetus, implantation scars still remain as evidence that the animal has been pregnant. […] The animals were autopsied on day 14 of pregnancy and the uteri were examined for evidence of pregnancy (implantation sites, fetalresorption or live fetuses), hemorrhage, and evidence of abnormalities of the uterus, placenta or fetuses. A compound was considered to be active if there was a reduction of live fetuses in at least 60% of the treated animals and the presence of implantation sites proves the animal to have been pregnant.
The compounds were then studied for dose-activity relationship and the corresponding ED50 values, i.e. 100% activity (absence of live fetuses) in 50% of the animals, were also detrmined. The following Table reports the ED50 values of some representative compounds of the invention as well as that of the above mentioned known substance: […]

Structure (SMILES)	ED50	activity by the criterion: reduction of live fetuses in at least 60% of the treated animals (hamster, 10 mg/kg s.c. daily for 5 days, days 4-8 of pregnancy)
CCC(=O)n1nc(-c2cccc(OC)c2)nc1-c1ccccc1C [Example 2, 1-Propionyl-3-(3-methoxyphenyl)-5-(2-methylphenyl)-1H-1,2,4-triazole]	0.07 mg/kg	
COc1cccc(-c2nc(-c3ccc(Cl)cc3C)n(C(C)=O)n2)c1 [Example 5, 1-Acetyl-5-(4-chloro-2-methylphenyl)-3-(3-methoxyphenyl)-1H-1,2,4-triazole]	0.06 mg/kg	
CCc1ccccc1-c1nc(-c2cccc(OC)c2)nn1C(=O)Nc1ccc(Cl)cc1 [Example 19, 1-(4-Chlorophenylcarbamoyl)-5-(2-ethylphenyl)-3-(3-methoxyphenyl)-1H-1,2,4-triazole]	0.05 mg/kg	
CCNC(=O)n1nc(-c2cccc(OC)c2)nc1-c1ccccc1C [Example 14]	0.15 mg/kg	
COc1cccc(-c2nc(-c3ccccc3COC(C)=O)n(C(C)=O)n2)c1 [Example 7, 1-Acetyl-5-(2-acetoxymethylphenyl)-3-(3-methoxyphenyl)-1H-1,2,4-triazole]	0.04 mg/kg	
COc1cccc(-c2nc(-c3ccccc3C)n(C)n2)c1 [1-Methyl-3-(3-methoxyphenyl)-5-(2-methylphenyl)-1H-1,2,4,-triazole, reference compound]	> 10 mg/kg	much less active
CCc1ccccc1-c1nc(-c2cccc(OC)c2)nn1C(=O)Nc1ccccc1Cl [Example 18]	0.05 mg/kg	
COc1cccc(-c2nc(-c3ccccc3C)n(C(=O)c3ccccc3)n2)c1 [Example 11, 1-Benzoyl-3-(3-methoxyphenyl)-5-(2-methylphenyl)-1H-1,2,4-triazole]	0.1 mg/kg	
CCc1ccccc1-c1nc(-c2cccc(OC)c2)nn1C(=O)Nc1ccccc1 [Example 16]	0.05 mg/kg	
CCc1ccccc1-c1nc(-c2cccc(OC)c2)nn1C(=O)Nc1ccc(OC)cc1 [Example 17, 5-(2-Ethylphenyl)-3-(3-methoxyphenyl)-1-(4-methoxyphenylcarbamoyl)-1H-1,2,4-triazole]	0.07 mg/kg	
COc1cccc(-c2nc(-c3ccccc3C)n(C(=O)Nc3ccccc3)n2)c1 [Example 13, 3-(3-Methoxyphenyl)-5-(2-methylphenyl)-1-phenylcarbamoyl-1H-1,2,4-triazole]	0.05 mg/kg	
COc1cccc(-c2nc(-c3ccccc3C)n(C(=O)C(C)(C)C)n2)c1 [Example 3, 1-(2,2-Dimethylpropionyl)-3-(3-methoxyphenyl)-5-(2-methylphenyl)-1H-1,2,4-triazole]	0.15 mg/kg	
COc1cccc(-c2nc(-c3ccccc3C)n(C(=O)Nc3ccc(C)cc3)n2)c1 [Example 22a, 3-(3-methoxyphenyl)-5-(2-methylphenyl)-1-(4-methylphenylcarbamoyl)-1H-1,2,4-triazole]	0.08 mg/kg	
COc1cccc(-c2n[nH]c(-c3ccccc3COC(C)=O)n2)c1 [Example 24, 5-(2-Acetoxymethylphenyl)-3-(3-methoxyphenyl)-1H-1,2,4-triazole]	0.04 mg/kg	
CCOC(=O)n1nc(-c2cccc(OC)c2)nc1-c1ccccc1C [Example 10, 1-Carbethoxy-3-(3-methoxyphenyl)-5-(2-methylphenyl)-b 1H-1,2,4-triazole]	0.06 mg/kg	
CCc1ccccc1-c1nc(-c2cccc(OC)c2)n(C(=O)Nc2ccc(C)cc2)n1 [Example 21b, 3-(2-ethylphenyl)-5-(3-methoxyphenyl)-1-(4-methylphenylcarbamoyl)-1H-1,2,4-triazole]	0.04 mg/kg	
CCc1ccccc1-c1nc(-c2cccc(OC)c2)nn1C(=O)Nc1ccc(C)cc1 [Example 21a, 5-(2-Ethylphenyl)-3-(3-methoxyphenyl)-1-(4-methylphenylcarbamoyl)-1H-1,2,4-triazole]	0.05 mg/kg	
COc1cccc(-c2nc(-c3ccccc3C)n(C(C)=O)n2)c1 [Example 1, 1-Acetyl-3-(3-methoxyphenyl)-5-(2-methylphenyl)-1H-1,2,4-triazole]	0.05 mg/kg	
COc1cccc(-c2nc(-c3ccccc3C)nn2C(=O)Nc2ccc(C)cc2)c1 [Example 22b, 5-(3-methoxyphenyl)-3-(2-methylphenyl)-1-(4-methylphenylcarbamoyl)-1H-1,2,4-triazole]	0.08 mg/kg	
CCOC(=O)n1nc(-c2cccc(OC)c2)nc1-c1ccccc1CC [Example 8, 1-Carbethoxy-5-(2-ethylphenyl)-3-(3-methoxyphenyl)-1H-1,2,4-triazole]	0.05 mg/kg	
CCc1ccccc1-c1nc(-c2cccc(OC)c2)nn1C(=O)OC [Example 9, 1-Carbomethoxy-5-(2-ethylphenyl)-3-(3-methoxyphenyl)-1H-1,2,4-triazole]	0.05 mg/kg	
CCc1ccccc1-c1nc(-c2cccc(OC)c2)nn1C(=O)Nc1ccc([N+](=O)[O-])cc1 [Example 20, 5-(2-Ethylphenyl)-3-(3-methoxyphenyl)-1-(4-nitrophenyl)carbamoyl-1H-1,2,4-triazole]	0.05 mg/kg	
CCc1ccccc1-c1nc(-c2cccc(OC)c2)nn1C(C)=O [Example 6, 1-Acetyl-5-(2-ethylphenyl)-3-(3-methoxyphenyl)-1H-1,2,4-triazole]	0.04 mg/kg	
CCc1ccccc1-c1nc(-c2cccc(OC)c2)nn1C(=O)NC [Example 15, 5-(2-Ethylphenyl)-3-(3-methoxyphenyl)-1-methylcarbamoyl-1H-1,2,4-triazole]	0.05 mg/kg	
